According to patent US11001591B2, “TRAF 6 inhibitors” (HELMHOLTZ ZENTRUM MUENCHEN—DEUTSCHES FORSCHUNGSZENTRUM FÜR …, priority 2016, dated 2021):
Where two headings read alike, the source gives them in different places.

How the values were obtained:
[1] = system: Jurkat T-cells and U2OS cells; assay: Cell cycle assessment (propidium iodide); assay type: cell-based; conditions: 24 hours and 72 hours treatment
Method: For cell cycle staining, cells were seeded at 2×10^5 cells per sample and treated with compound or DMSO. After the indicated incubation time (24 or 72 hours), cells were fixed in 100% Ethanol and subsequently stained with the Propidium Iodide staining solution (0.1% Triton X-100; 20 μg/ml Propidium Iodide; 200 μg/ml RNAse A in PBS) for 40 min in the dark. The Propidium Iodide fluorescence was collected using the Attune Flow Cytometer (Thermo Fisher Scientific). Analysis was performed using the Single Cell analysis software FlowJo.

[2] = Pharmacokinetic studies IV, PO, IP; assay type: in vivo; conditions: for half-life: read-out: in vivo half-life in circulation
Method: (§1) All ADME (plasma stability, plasma protein binding, microsomal stability, Log D, Caco-2 assay, CYP450 inhibition and hERG predictor assay) as well as pharmacokinetic studies (Tmax, Cmax, AUC0-240 min, Mean Residence Time, Elimination half life, Elimination rate constant, Volume of Distribution and Clearance) of C25-140 (compound 3) were conducted by Bienta Enamine Biology Services of Bienta/Enamine Ltd.
The inventors also tested the pharmacokinetics (PK) of C25-140 after intravenous (IV), peroral (PO) and intraperitoneal (IP) injection of each 10 mg/kg compound. All the analyzed data are summarized in FIG. 9B and the concentration/time-course graph for IP administration is shown in FIG. 9C.

clAP1 = target: T1, clAP1 (Homo sapiens, UniProt Q13490); assay: In vitro ubiquitination assay, clAP1; assay type: biochemical; conditions: RING E3 ligase; K63 chain formation
T1 construct: purchased Boston Biochem one of K-102, K-260, K-200B, K-220, K-240, K-270
Method: For analysis of clAP1, MDM2, TRIM63, RNF4, ITCH and E6AP mediated poly-ubiquitination, the respective ubiquitin ligase kit from Boston Biochem (K-102, K-260, K-200B, K-220, K-240 and K-270) was used. Here, reaction buffer, E1, E2 and E3 enzyme (and p53 substrate in case of MDM2) were mixed and pre-incubated with compound or DMSO for 5 minutes at room temperature before adding Mg^2+-ATP and mono-ubiquitin for reaction start. Ubiquitination was visualized by Western Blot analyses.

IL-2 and TNFα = assay: ELISA cytokine secretion of Jurkat T-cells; assay type: cell-based, human; conditions: PMA/Ionomycin
Method: (§2) For measurement of cytokine secretion, 2×10^5 Jurkat T-cells or primary CD4^+ T-cells or human PBMCs per sample were seeded, treated with compound for 6 hours and stimulated as indicated. 20 hours after stimulation, supernatants were harvested and analyzed with the IL-2, IL-1β and TNFα Ready-Set-Go! ELISA (2nd Generation) kits provided by Affymatrix eBioscience.

[3] = system: U2932 (ABC DLBCL-MYD88 wt); assay: Cell viability in DLBCL, U2932; assay type: cell-based; conditions: 30 μM added at day 0, 4 and 8; 9 days
Method: To determine the effects of C25-140 on MYD88-dependent ABC-DLBCL, we chose the HBL1 (ABC-DLBCL-MYD88 L265P), U2932 (ABC DLBCL-MYD88 wt) and BJAB (GCB DLBCL) cell lines. 1×10^6 cells of each cell line was seeded in 5 ml and treated with 30 μM compound C25-140 (compound 3) or DMSO. The entire experiment was carried out for 9 days. Every day 500 μl were taken and viable cell number was acquired using the ViCEII cell counter (Beckmann Coulter). At days 4 and 8 of the experiment the volume was again adjusted to 5 ml and samples were supplemented with 30 μM compound C25-140 or DMSO. This process was necessary to ensure linear proliferation of DMSO treated cells. All curves of C25-140 treated samples were referred to the corresponding DMSO treated controls.

[4] = system: 24 different Ubiquitin reaction cascades; assay: Ubiquitin Profiler (Eurofins); assay type: biochemical; conditions: 30 μM compound
Method: C25-140 was sent to Eurofins Pharma Discovery Services UK to perform a Single Point Ubiquitin Profiler testing of C25-140 effect at a concentration of 30 μM on 24 different Ubiquitin reaction cascades employing distinct combinations of E2, E3 and substrate. Each reaction was measured in duplicates. Cascade activity is expressed as a percentage of the mean cascade activity in the positive control samples. The positive control value is considered to be 100%, and all test samples are referred to this value.

Microsomal stability = assay type: in vitro ADME
Method: as §1

[5] = system: human peripheral blood mononuclear cells (PBMCs); assay: Cytokine secretion of primary human PBMCs; assay type: cell-based
Method: as §2
For isolation of peripheral blood mononuclear cells (PBMCs) from 50 mL human blood of three different donors, blood was mixed with 800 units of Heparin (Sigma-Aldrich) and centrifuged at 300×g for 10 minutes without brake. After removal of the plasma fraction, buffy coat was diluted in 2 volumes PBS and added on top of 15 ml Lymphoprep (STEMCELL technologies). After centrifugation at 160×g for 20 minutes at room temperature without brake, platelets were removed and the cell suspension was centrifuged again at 350 xg for 20 minutes without brake. Mononuclear cells from the intermediate layer were transferred to a new falcon and washed 3 times in PBS supplemented with 0.1% BSA and 2 mM EDTA. In the end, cells were resuspended in RPMI medium containing 10% FCS, 1% Penicillin/Streptomycin and 50 μM β-mercaptoethanol. Per sample, 2×10^5 cells were seeded and treated with compound for 6 hours. The cells were stimulated with either 1 μg/ml Lipopolysaccharide (LPS) or CD3/CD28 (1 μg hCD3 (IgG2A), 4 μg hCD28 (IgG1), 2 μg ant-IgG2A and 2 μg ant-IgG2A) or 20 ng/IL-1β. Supernatants for analysis of cytokine secretion were harvested 20 hours after stimulation.

T1 sequence (Q13490 whole entry): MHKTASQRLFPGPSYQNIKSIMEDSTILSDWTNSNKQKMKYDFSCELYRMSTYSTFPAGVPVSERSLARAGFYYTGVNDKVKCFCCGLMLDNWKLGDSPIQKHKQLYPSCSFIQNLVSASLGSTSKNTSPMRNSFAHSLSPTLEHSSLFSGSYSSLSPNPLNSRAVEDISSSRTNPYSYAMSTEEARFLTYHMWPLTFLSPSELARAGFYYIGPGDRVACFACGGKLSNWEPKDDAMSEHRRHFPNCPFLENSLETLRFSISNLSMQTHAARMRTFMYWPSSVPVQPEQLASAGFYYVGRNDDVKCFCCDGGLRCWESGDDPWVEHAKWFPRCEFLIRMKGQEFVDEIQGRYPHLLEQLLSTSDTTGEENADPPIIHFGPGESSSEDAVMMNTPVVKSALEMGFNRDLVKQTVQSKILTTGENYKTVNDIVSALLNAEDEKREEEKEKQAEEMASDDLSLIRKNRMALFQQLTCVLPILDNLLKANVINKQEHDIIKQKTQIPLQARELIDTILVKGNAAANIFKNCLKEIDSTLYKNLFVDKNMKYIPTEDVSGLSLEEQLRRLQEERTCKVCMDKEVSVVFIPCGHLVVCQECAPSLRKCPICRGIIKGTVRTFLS

Cc1nn(-c2ccc3nnc(C)n3n2)c(C)c1CCC(=O)N1CCC(Cc2ccccc2)CC1 [Compound 3, 1-(4-benzylpiperidin-1-yl)-3-(3,5-dimethyl-1-(3-methyl-[1,2,4]triazolo[4,3-b]pyridazin-6-yl)-1H-pyrazol-4-yl)propan-1-one]
cell cycle progression [1]: not impaired | adverse effects on animals during PK studies ([2]; 10 mg/kg): no obvious adverse effects | distribution phase ([2]; IV, PO, IP 10 mg/kg): rapid initial distribution phase | half-life ([2]; in vivo, iv, 10 mg/kg): 1.33 h | half-life ([2]; in vivo, po, 10 mg/kg): 2.12 h | bioavailability ([2]; in vivo, po, calculated, 10 mg/kg): ~45% | half-life ([2]; in vivo, IP administration, 10 mg/kg): 3.07 h | auto-ubiquitination of clAP1 (clAP1): dose-dependently diminished | cytokine secretion of IL-2 and TNFα (IL-2 and TNFα): dose-dependently decreased | viability (cell count) [3]: only slightly affected | inhibition of ubiquitination cascades, Ubiquitin Profiler panel [4]: None of the reactions is considerably inhibited | microsomal stability (Microsomal stability): stable | secretion of IL-2 and TNFα ([5]; human PBMCs stimulated with CD3/CD28): decreased levels | secretion of IL-6 and TNFα ([5]; human PBMCs stimulated with IL-1β): attenuated | secretion of IL-1β and TNFα ([5]; human PBMCs stimulated with LPS): reduced levels
